# US7473790B2 (Pfizer Inc., priority 2003, dated 2009)
# Like-named read-outs stand apart in the source and are kept apart here.
# Biological target: T1, HCV polymerase (Hepatitis C virus genotype 1b, UniProt P26663)
# T1 construct: 2.5 pmoles (0.15 μg) HCV polymerase protein in a final volume of 75 μL
# Experiment: HCV polymerase primer/template-directed transcription assay (32P-GTP incorporation, filter binding)
# Type: biochemical
# Conditions: for IC50: 30 minutes at 30° C., concentration giving 50% inhibition of polymerase-directed transcription; for inhibition at 20 µM: @ 20 uM compound
# Method in brief: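 Recombinant genotype 1b polymerase (30 nM) extended biotin-dG12 primer on poly(rC)300 template with 1 μM GTP plus α-32P-GTP, pH 7.2, 10 mM MgCl2, 30 min at 30° C, 1% DMSO final. Products captured on DE filters and counted. IC50 fitted from triplicate cpm, with a tight-binding correction applied below 200 nM.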
# [1] = recombinant HCV polymerase, read-out: IC50
# [2] = given where IC50 was impractical to calculate, read-out: percent inhibition
# T1 sequence (P26663 2420-3010): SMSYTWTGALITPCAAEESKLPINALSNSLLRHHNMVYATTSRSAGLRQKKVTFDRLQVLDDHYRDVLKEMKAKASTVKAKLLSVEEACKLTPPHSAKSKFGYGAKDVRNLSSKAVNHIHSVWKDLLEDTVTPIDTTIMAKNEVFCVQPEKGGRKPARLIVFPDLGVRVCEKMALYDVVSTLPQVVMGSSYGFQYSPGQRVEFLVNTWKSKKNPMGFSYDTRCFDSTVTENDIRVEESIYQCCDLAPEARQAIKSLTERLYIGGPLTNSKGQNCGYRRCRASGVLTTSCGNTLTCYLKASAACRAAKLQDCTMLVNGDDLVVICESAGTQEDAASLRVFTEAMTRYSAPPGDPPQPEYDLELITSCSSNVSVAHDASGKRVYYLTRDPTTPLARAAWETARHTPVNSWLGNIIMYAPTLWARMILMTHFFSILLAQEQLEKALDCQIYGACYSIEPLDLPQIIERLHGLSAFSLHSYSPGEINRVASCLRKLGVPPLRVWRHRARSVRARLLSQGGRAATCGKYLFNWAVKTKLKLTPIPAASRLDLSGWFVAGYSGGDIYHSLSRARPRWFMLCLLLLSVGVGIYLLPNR
SMILES,IC50 [1] [µM],other results
"CCCOc1ccc(CCC2(C3CCCC3)CC(=O)CC(=O)O2)cc1 (centres unmarked) [A(60), 6-Cyclopentyl-6-[2-(4-propoxy-phenyl)-ethyl]-dihydro-pyran-2,4-dione]",8.7,
"COc1ccc(CCC2(C3CCCC3)CC(=O)CC(=O)O2)c(C(C)=O)c1 (centres unmarked) [A(61), 6-[2-(2-acetyl-4-methoxyphenyl)ethyl]-6-cyclopentyldihydro-2H-pyran-2,4(3H)-dione]",,"inhibition at 50 µM (@ 50 uM compound, given where IC50 was impractical to calculate, read-out: percent inhibition): 40%"
"CCC(=O)c1cc(OC)ccc1CCC1(C2CCCC2)CC(=O)CC(=O)O1 (centres unmarked) [A(62), 6-cyclopentyl-6-[2-(4-methoxy-2-propionylphenyl)ethyl]dihydro-2H-pyran-2,4(3H)-dione]",8.3,
"CC(C)c1ccc(CCC2(C3CCCC3)CC(=O)CC(=O)O2)cc1Cl (centres unmarked) [A(63), 6-[2-(3-chloro-4-isopropylphenyl)ethyl]-6-cyclopentyldihydro-2H-pyran-2,4(3H)-dione]",11,
"CC(C)c1ccc(CCC2(C3CCCC3)CC(=O)CC(=O)O2)cc1F (centres unmarked) [A(64), 6-cyclopentyl-6-[2-(3-fluoro-4-isopropylphenyl)ethyl]dihydro-2H-pyran-2,4(3H)-dione]",4,
"CCc1cc(CCC2(C3CCCC3)CC(=O)CC(=O)O2)ccc1F (centres unmarked) [A(65), 6-cyclopentyl-6-[2-(3-ethyl-4-fluorophenyl)ethyl]dihydro-2H-pyran-2,4(3H)-dione]",1.3,
"CCc1cccc(CCC2(C3CCCC3)CC(=O)CC(=O)O2)c1 (centres unmarked) [A(66), 6-Cyclopentyl-6-[2-(3-ethyl-phenyl)-ethyl]-dihydro-pyran-2,4-dione]",3.6,
"COC(=O)Cc1cccc(CCC2(C3CCCC3)CC(=O)CC(=O)O2)c1 (centres unmarked) [A(67), {3-[2-(2-Cyclopentyl-4,6-dioxo-tetrahydro-pyran-2-yl)-ethyl]-phenyl}-acetic acid methyl ester]",,inhibition at 20 µM [2]: 24%
"CC1(C)C(=O)Oc2ccc(CCC3(C4CCCC4)CC(=O)CC(=O)O3)cc21 (centres unmarked) [A(68), 6-Cyclopentyl-6-[2-(3,3-dimethyl-2-oxo-2,3-dihydro-benzofuran-5-yl)-ethyl]-dihydro-pyran-2,4-dione]",3.4,
"COC(=O)C1(c2cccc(CCC3(C4CCCC4)CC(=O)CC(=O)O3)c2)CC1 (centres unmarked) [A(69), 1-{3-[2-(2-Cyclopentyl-4,6-dioxo-tetrahydro-pyran-2-yl)-ethyl]-phenyl}-cyclopropanecarboxylic acid methyl ester]",9.9,
"N#CCc1cccc(CCC2(C3CCCC3)CC(=O)CC(=O)O2)c1 (centres unmarked) [A(70), {3-[2-(2-Cyclopentyl-4,6-dioxo-tetrahydro-pyran-2-yl)-ethyl]-phenyl}-acetonitrile]",9.4,
"CC(C)(CNC(=O)c1cc[nH]n1)c1cccc(CCC2(C3CCCC3)CC(=O)CC(=O)O2)c1 (centres unmarked) [A(71), 1H-Pyrazole-3-carboxylic acid (2-{3-[2-(2-cyclopentyl-4,6-dioxo-tetrahydro-pyran-2-yl)-ethyl]-phenyl}-2-methyl-propyl)-amide]",1.9,
"CC(C)(CNC(=O)CCc1ccco1)c1cccc(CCC2(C3CCCC3)CC(=O)CC(=O)O2)c1 (centres unmarked) [A(72), N-(2-{3-[2-(2-Cyclopentyl-4,6-dioxo-tetrahydro-pyran-2-yl)-ethyl]-phenyl}-2-methyl-propyl)-3-furan-2-yl-propionamide]",1.5,
"Cc1cc(C(=O)NCC(C)(C)c2cccc(CCC3(C4CCCC4)CC(=O)CC(=O)O3)c2)oc1C (centres unmarked) [A(73), 4,5-Dimethyl-furan-2-carboxylic acid (2-{3-[2-(2-cyclopentyl-4,6-dioxo-tetrahydro-pyran-2-yl)-ethyl]-phenyl}-2-methyl-propyl)-amide]",3.3,
"CC(C)(CNC(=O)c1cnc(O)cn1)c1cccc(CCC2(C3CCCC3)CC(=O)CC(=O)O2)c1 (centres unmarked) [A(74), 5-Hydroxy-pyrazine-2-carboxylic acid (2-{3-[2-(2-cyclopentyl-4,6-dioxo-tetrahydro-pyran-2-yl)-ethyl]-phenyl}-2-methyl-propyl)-amide]",1.2,
"N#CCC(=O)c1ccc(CCC2(C3CCCC3)CC(=O)CC(=O)O2)cc1 (centres unmarked) [A(75), 3-{4-[2-(2-Cyclopentyl-4,6-dioxo-tetrahydro-pyran-2-yl)-ethyl]-phenyl}-3-oxo-propionitrile]",7.1,
"CC1(C)COc2ccc(CCC3(C4CCCC4)CC(=O)CC(=O)O3)cc21 (centres unmarked) [A(76), 6-Cyclopentyl-6-[2-(3,3-dimethyl-2,3-dihydro-benzofuran-5-yl)-ethyl]-dihydro-pyran-2,4-dione]",5.8,
"O=C1CC(=O)OC(CCc2ccc(Cc3nccs3)c(F)c2)(C2CCCC2)C1 (centres unmarked) [A(77), 6-Cyclopentyl-6-[2-(3-fluoro-4-thiazol-2-ylmethyl-phenyl)-ethyl]-dihydro-pyran-2,4-dione]",24,
"O=C1CC(=O)OC(CCc2cccc(Cc3nccs3)c2)(C2CCCC2)C1 (centres unmarked) [A(78), 6-Cyclopentyl-6-[2-(3-thiazol-2-ylmethyl-phenyl)-ethyl]-dihydro-pyran-2,4-dione]",21,

SMILES,IC50 [1] [µM],other results
"O=C1CC(=O)OC(CCc2ccc(CCO)cc2)(C2CCCC2)C1 (centres unmarked) [A(79), 6-Cyclopentyl-6-{2-[4-(2-hydroxy-ethyl)-phenyl]-ethyl}-dihydro-pyran-2,4-dione]",1,
"O=C1CC(=O)OC(CCc2cccc(CCO)c2)(C2CCCC2)C1 (centres unmarked) [A(80), 6-Cyclopentyl-6-{2-[3-(2-hydroxy-ethyl)-phenyl]-ethyl}-dihydro-pyran-2,4-dione]",20,
"CC(C)(C#N)c1ccc(CCC2(C3CCCC3)CC(=O)CC(=O)O2)cc1F (centres unmarked) [A(81), 2-{4-[2-(2-Cyclopentyl-4,6-dioxo-tetrahydro-pyran-2-yl)-ethyl]-2-fluoro-phenyl}-2-methyl-propionitrile]",,"IC50 (IC50, recombinant HCV polymerase): 0.14 µM"
"O=C1CC(=O)OC(CCc2ccccn2)(C2CCCC2)C1 (centres unmarked) [A(82), 6-Cyclopentyl-6-(2-pyridin-2-yl-ethyl)-dihydro-pyran-2,4-dione]",,inhibition at 20 µM [2]: 11%
"CCC(CC)Oc1ccc(CCC2(C3CCCC3)CC(=O)CC(=O)O2)cc1Cl (centres unmarked) [A(83), 6-{2-[3-Chloro-4-(1-ethyl-propoxy)-phenyl]-ethyl}-6-cyclopentyl-dihydro-pyran-2,4-dione]",5.4,
"CC(=O)c1ccc(CCC2(C3CCCC3)CC(=O)CC(=O)O2)s1 (centres unmarked) [A(84), 6-[2-(5-Acetyl-thiophen-2-yl)-ethyl]-6-cyclopentyl-dihydro-pyran-2,4-dione]",6.8,
"CNS(=O)(=O)c1ccc(CCC2(C3CCCC3)CC(=O)CC(=O)O2)cc1F (centres unmarked) [A(85), 4-[2-(2-Cyclopentyl-4,6-dioxo-tetrahydro-pyran-2-yl)-ethyl]-2-fluoro-methyl-benzenesulfonamide]",12.4,
"N#CC1(c2ccc(CCC3(C4CCCC4)CC(=O)CC(=O)O3)cc2F)CC1 (centres unmarked) [A(86), 1-{4-[2-(2-Cyclopentyl-4,6-dioxo-tetrahydro-pyran-2-yl)-ethyl]-2-fluoro-phenyl}-cyclopropanecarbonitrile]",0.4,
CCc1cc(CCC2(C3CCCC3)CC(=O)CC(=O)O2)ccc1N(C)S(C)(=O)=O (centres unmarked) [A(87)],0.89,
"CN(c1ccc(CCC2(C3CCCC3)CC(=O)CC(=O)O2)cc1)S(C)(=O)=O (centres unmarked) [A(88), N-{4-[2-(2-cyclopentyl-4,6-dioxotetrahydro-2H-pyran-2-yl)ethyl]phenyl}-N-methylmethanesulfonamide]",2.3,
"O=C1CC(=O)OC(CCc2ccc(O)c(C3CCCC3)c2)(C2CCCC2)C1 (centres unmarked) [A(89), 6-cyclopentyl-6-[2-(3-cyclopentyl-4-hydroxyphenyl)ethyl]dihydro-2H-pyran-2,4(3H)-dione]",2.8,
"CCCc1cc(CCC2(C3CCCC3)CC(=O)CC(=O)O2)ccc1O (centres unmarked) [A(90), 6-cyclopentyl-6-[2-(4-hydroxy-3-propylphenyl)ethyl]dihydro-2H-pyran-2,4(3H)-dione]",0.77,
"CCC(C#N)(CC)c1ccc(CCC2(C3CCCC3)CC(=O)CC(=O)O2)cc1F (centres unmarked) [A(91), 2-{4-[2-(2-Cyclopentyl-4,6-dioxo-tetrahydro-pyran-2-yl)-ethyl]-2-fluoro-phenyl}-2-ethyl-butyronitrile]",0.5,
"N#CC1(c2ccc(CCC3(C4CCCC4)CC(=O)CC(=O)O3)cc2F)CCC1 (centres unmarked) [A(92), 1-{4-[2-(2-Cyclopentyl-4,6-dioxo-tetrahydro-pyran-2-yl)-ethyl]-2-fluoro-phenyl}-cyclobutanecarbonitrile]",1,
"CC(C)c1cc(CCC2(C3CCCC3)CC(=O)CC(=O)O2)ccc1O (centres unmarked) [A(93), 6-Cyclopentyl-6-[2-(4-hydroxy-3-isopropyl-phenyl)-ethyl]-dihydro-pyran-2,4-dione]",0.7,
"CC(=O)Oc1ccc(CCC2(C3CCCC3)CC(=O)CC(=O)O2)cc1C(C)C (centres unmarked) [A(94), Acetic acid 4-[2-(2-cyclopentyl-4,6-dioxo-tetrahydro-pyran-2-yl)-ethyl]-2-isopropyl-phenyl ester]",4,
"O=C1CC(=O)OC(CCc2ccc(O)c(Cl)c2)(C2CCCC2)C1 (centres unmarked) [A(95), 6-[2-(3-Chloro-4-hydroxy-phenyl)-ethyl]-6-cyclopentyl-dihydro-pyran-2,4-dione]",2.1,
"CCc1cc(CCC2(C3CCCC3)CC(=O)CC(=O)O2)ccc1OC (centres unmarked) [A(96), 6-Cyclopentyl-6-[2-(3-ethyl-4-methoxy-phenyl)-ethyl]-dihydro-pyran-2,4-dione]",3.2,
"CCc1nc(C)c(CC2=C(O)CC(CCc3ccc(C(C)(C)C#N)c(F)c3)(C3CCCC3)OC2=O)[nH]1 (centres unmarked) [A(97), 2-[4-(2-{2-cyclopentyl-5-[(2-ethyl-4-methyl-1H-imidazol-5-yl)methyl]-4-hydroxy-6-oxo-3,6-dihydro-2H-pyran-2-yl}ethyl)-2-fluorophenyl]-2-methylpropanenitrile]",0.29,
